The target of one data set is human recombinant GSK-3β (Homo sapiens, UniProt P49841). The data set is described as follows: GSK-3β kinase assay, LANCE Ultra TR-FRET. Type of data set: biochemical. Conditions: for inhibition at 50 µM / GSK-3β % Inhibition @ 50 μM: mean ± SD, n.i. = no inhibition; for IC50: mean ± SD of at least three independent determinations, ATP near Km. The protocol: GSK-3β and FYNα kinase assays were run in 384-well microplates (OptiPlate-384, White, PerkinElmer) in a total reaction volume of 20 μL. The inhibitory potency against human recombinant GSK-3β and FYNα (Carna Biosciences) was evaluated using the LANCE Ultra (PerkinElmer) time-resolved fluorescence resonance energy transfer (TR-FRET) by measuring the phosphorylation of the ULight-labeled substrate, according to the manufacturer's instructions. […] Briefly, test compounds and staurosporine (reference compound) or DMSO (control) are mixed with the enzyme (GSK-3β: 2 nM and FYNα: 1 nM) in a buffer containing 50 mM HEPES (pH 7.5), 1 mM EGTA, 10 mM MgCl2, 2 mM DTT, and 0.01% Tween-20. […] Following incubation, the reaction is stopped by adding 6 mM EDTA. After 5 min, the antiphospho antibody labeled with europium chelate is added. After 1 more hour, the kinase reaction is monitored by irradiation at 320 nm and the fluorescence measured at 615 and 665 nm, using EnVision 2014 Multilabel Reader (PerkinElmer). The calculated signal ratio at 665/615 nm is proportional to the extent of ULight-substrate phosphorylation. The compounds were tested at 11 different concentrations ranging from 3 nM up to 100 μM in triplicate. […] The results were expressed as a percent inhibition of the control enzyme activity. Dose-response curves were run in at least three independent experiments, performed in three technical replicates. IC50 values (concentrations causing half-maximal enzyme inhibition) were determined by nonlinear regression analysis of the Log[concentration]/response curves generated with mean replicate values using a four parameter Hill equation curve fitting with GraphPad Prism 8 (GraphPad Software Inc., CA-USA).
Chain of human recombinant GSK-3β (P49841 whole entry): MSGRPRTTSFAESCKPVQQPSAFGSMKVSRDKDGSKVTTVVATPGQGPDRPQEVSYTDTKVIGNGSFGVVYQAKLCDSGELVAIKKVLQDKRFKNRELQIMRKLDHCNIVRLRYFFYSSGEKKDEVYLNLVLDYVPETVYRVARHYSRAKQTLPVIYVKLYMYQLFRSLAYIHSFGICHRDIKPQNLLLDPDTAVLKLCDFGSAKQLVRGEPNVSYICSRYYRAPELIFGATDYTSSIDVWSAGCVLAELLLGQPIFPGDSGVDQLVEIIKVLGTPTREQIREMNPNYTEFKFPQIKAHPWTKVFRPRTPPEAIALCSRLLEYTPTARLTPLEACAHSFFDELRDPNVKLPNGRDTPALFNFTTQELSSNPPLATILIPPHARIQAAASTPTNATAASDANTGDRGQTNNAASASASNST

The target of the next data set is FYNα (Homo sapiens, UniProt P06241). The data set is described as follows: FYNα kinase assay, LANCE Ultra TR-FRET. Format: biochemical. To be noted: for IC50: mean ± SD of at least three independent determinations, ATP near Km, read-out: Fyn IC50. The protocol:
GSK-3β and FYNα kinase assays were run in 384-well microplates (OptiPlate-384, White, PerkinElmer) in a total reaction volume of 20 μL. The inhibitory potency against human recombinant GSK-3β and FYNα (Carna Biosciences) was evaluated using the LANCE Ultra (PerkinElmer) time-resolved fluorescence resonance energy transfer (TR-FRET) by measuring the phosphorylation of the ULight-labeled substrate, according to the manufacturer’s instructions. The synthetic peptide surrounding Ser641 of human muscle glycogen synthase (ULight-GS (Ser641/pSer657)) and the synthetic 28-amino acid peptide containing eight Tyr residues placed in different amino acid contexts (ULightTM-TK (PT66)) were selected as specific substrates for GSK-3β and FYNα, respectively. Briefly, test compounds and staurosporine (reference compound) or DMSO (control) are mixed with the enzyme (GSK-3β: 2 nM and FYNα: 1 nM) in a buffer containing 50 mM HEPES (pH 7.5), 1 mM EGTA, 10 mM MgCl2, 2 mM DTT, and 0.01% Tween-20. […] Following incubation, the reaction is stopped by adding 6 mM EDTA. After 5 min, the antiphospho antibody labeled with europium chelate is added. After 1 more hour, the kinase reaction is monitored by irradiation at 320 nm and the fluorescence measured at 615 and 665 nm, using EnVision 2014 Multilabel Reader (PerkinElmer). The calculated signal ratio at 665/615 nm is proportional to the extent of ULight-substrate phosphorylation. The compounds were tested at 11 different concentrations ranging from 3 nM up to 100 μM in triplicate. […] The results were expressed as a percent inhibition of the control enzyme activity.
Dose–response curves were run in at least three independent experiments, performed in three technical replicates. IC50 values (concentrations causing half-maximal enzyme inhibition) were determined by nonlinear regression analysis of the Log[concentration]/response curves generated with mean replicate values using a four parameter Hill equation curve fitting with GraphPad Prism 8 (GraphPad Software Inc., CA-USA).
(Time-resolved FRET reads energy transfer from a long-lived donor to a nearby acceptor.)

Data set [1] has as its system immortalized murine microglia N9. The data set is described as follows: Immunomodulation in LPS-treated N9 microglia, Western blot of iNOS and TREM2. To be noted: 2.5 and 5 μM; 100 ng/mL LPS, 24 h. On the technique in general: Immunoblotting shows a protein as a band on a membrane.
Description: To gain a conclusive answer on the potential role of these kinase inhibitors in counteracting neuroinflammatory processes, after the verified induced astrocytic polarization, the ability of selected compounds to modulate inflammatory response was analyzed by favoring the immunomodulatory switch from neurotoxic M1 phenotype of microglia to phagocytic and neuroprotective M2 phenotype, evaluating inducible nitric oxide synthase (iNOS) and TREM2 as M1 and M2 markers (Figure ).
The microglial phenotype was evaluated through Western blot analysis of the pro-inflammatory iNOS and anti-inflammatory-TREM2 markers.
Data set [2] deals with primary rat cerebellar granule neurons (CGNs). Put plainly: Neurotoxicity, cell viability in CGNs (MTT). Type of data set: cell-based. To be noted: 5, 10, and 25 μM, 24 h.
Description: A preliminary cell viability assessment was conducted in primary rat cerebellar granule neurons (CGNs), which are considered a reliable model for studying cellular and molecular mechanisms of survival/apoptosis and neurodegeneration/neuroprotection.
Primary cerebellar granule cells were dissociated from cerebella and plated on 96-well plates, previously coated with 10 μg/mL poly-L-lysine, at a density of 1.2 × 10^5 cells/0.2 mL medium/well in BME supplemented with 10% heat-inactivated FBS (Life Technologies), 2 mmol/L glutamine, 100 μmol/L gentamicin sulfate, and 25 mM KCl (all from Sigma-Aldrich). Sixteen hours later, 10 μM cytosine arabinofuranoside (Sigma-Aldrich) was added to avoid glial proliferation. After 7 days in vitro, differentiated neurons were shifted to serum-free BME medium and exposed to increasing concentrations (5 μM, 10 μM, 25 μM) of compounds of interest for 24 h. Then, cell viability was evaluated through the MTT assay.
The subject of data set [3] is neurospheres (NPCs from the subventricular zone). Put plainly: Neurosphere growth analysis (NPC proliferation). Type of data set: cell-based, mice. To be noted: 0.1, 1, and 5 μM; 7 days. The protocol:
Based on that, we further investigated the neurogenic and differentiation potential of our kinase inhibitors in cell culture of neurospheres, which are floating pools of NPCs coming from the subventricular zone (SVZ) of six-month-old mice. Particularly, we first analyzed the variation, during 7 days, in number and size of neurosphere population with and without treatment.
To investigate the effect of compounds of interest in neurospheres’ growth rate, single spheres were plated in suspension in 96-well plates (5 × 10^3 cells/well) in the presence of compounds (0.1 μM, 1 μM, and 5 μM) in complete DMEM F-12 culture medium. One image/well was acquired every day by using the Sartorius Incucyte Live-Cell Analysis System and evaluated through the Brightfield Spheroid Analysis Software Module. Only aggregates with areas larger than 400 μm^2 were considered for statistical analysis.

Data set [4] relates to primary rat cerebellar granule neurons (CGNs). The data set is described as follows: Neuroprotection in CGNs, serum/potassium deprivation (MTT). Type of data set: cell-based. To be noted: 5, 10, and 25 μM, 48 h. The text has this: First, we evaluated the neuroprotective properties of the selected compounds in the same cell line, once the expression of Fyn and GSK-3β in this cellular model was verified (Figure S2), after a serum/potassium deprivation experiment, which simulates physiological aging (and mortality), triggering around 20% of cell death. In particular, 7 days differentiated CGNs were exposed to serum-free BME medium with low extracellular concentration of K^+ ions and treated at selected doses (i.e., 5, 10, and 25 μM) of compounds for 48 h. Neuronal viability was then determined with an MTT assay.
To evaluate the neuroprotective effect of our compounds, we tested increasing concentrations (5 μM, 10 μM, 25 μM) of compounds of interest in differentiated CGNs switched to serum-free BME medium with 5 mM KCl (serum-potassium deprivation) for 48 h to mimic in vitro the naturally occurring death of granule cells. Neuroprotection was evaluated through MTT assay.
For MTT assay, thiazolyl blue was added to the culture medium at a final concentration of 0.1 mg/mL. Following a 20 min incubation at 37 °C in the dark, the MTT precipitate was dissolved in 0.1 M Tris–HCl pH 7.5 buffer containing 5% Triton X-100 (all from Sigma-Aldrich) and absorbance was read at 570 nm in a microplate spectrophotometric reader (Bio-Rad).

[5] abbreviates: 50 μM, mean ± SD, n.i. = no inhibition.

Usually inhibition stands for the share of the control response that was lost under treatment. The term IC50 denotes the midpoint of a concentration-inhibition curve.

Chain of FYNα (P06241 whole entry): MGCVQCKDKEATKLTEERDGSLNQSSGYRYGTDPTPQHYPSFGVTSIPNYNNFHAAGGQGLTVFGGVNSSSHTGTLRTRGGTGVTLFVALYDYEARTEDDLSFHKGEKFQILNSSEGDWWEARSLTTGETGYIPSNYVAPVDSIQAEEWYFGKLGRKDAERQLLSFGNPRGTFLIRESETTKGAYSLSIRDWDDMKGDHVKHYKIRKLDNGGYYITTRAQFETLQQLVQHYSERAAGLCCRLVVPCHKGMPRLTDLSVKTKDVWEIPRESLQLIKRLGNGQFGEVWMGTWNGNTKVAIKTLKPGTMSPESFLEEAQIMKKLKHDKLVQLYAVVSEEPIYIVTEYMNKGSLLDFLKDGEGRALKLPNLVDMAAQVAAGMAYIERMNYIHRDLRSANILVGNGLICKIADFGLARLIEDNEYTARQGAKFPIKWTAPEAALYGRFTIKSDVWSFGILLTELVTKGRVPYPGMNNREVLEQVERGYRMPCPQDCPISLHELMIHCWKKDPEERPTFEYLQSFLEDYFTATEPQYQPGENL

Regarding `Br.O=[N+]([O-])c1ccc(Nc2nc(-c3c[nH]c4ncccc34)cs2)cc1` [Compound 14, N-(4-Nitrophenyl)-4-(1H-pyrrolo[2,3-b]pyridin-3-yl)thiazol-2-amine Hydrobromide], on human recombinant GSK-3β, the inhibition at 50 µM was found to be 8%. On FYNα (setting [5]), the “Fyn % Inhibition @ 50 μM” value is recorded as “n.i”.
Take `Br.CN(C)c1ccc(CNc2nc(-c3c[nH]c4ncccc34)cs2)cc1` [Compound 26, N-(4-(Dimethylamino)benzyl)-4-(1H-pyrrolo[2,3-b]pyridin-3-yl)thiazol-2-amine Hydrobromide]: the “TREM2 expression (M2 marker) vs LPS” value in data set [1] was “no significant variations”. At human recombinant GSK-3β, the “GSK-3β % Inhibition @ 50 μM” value was “completely inactive”. Further, on FYNα (setting [5]), the “Fyn % Inhibition @ 50 μM” value was “completely inactive”. The “Neurotoxicity on CGNs (cell viability compared to control)” value in data set [2] is “not neurotoxic”.
As to `Br.c1cnc2[nH]cc(-c3csc(NCc4ccncc4)n3)c2c1` [Compound 27, N-(Pyridin-4-ylmethyl)-4-(1H-pyrrolo[2,3-b]pyridin-3-yl)thiazol-2-amine Hydrobromide], on FYNα, the IC50 stood at 3.48 ± 0.68 µM. Moreover, in data set [3], the “Neurosphere dimension (brightfield object total area), maturation” value is “noticeable maturation at days 6 and 7”; the “Neurosphere number (object count per image), neurogenesis” value is on record as “pronounced neurogenesis”.
With `Br.CN(Cc1ccccc1)c1nc(-c2c[nH]c3ncccc23)cs1` [Compound 33, N-Benzyl-N-methyl-4-(1H-pyrrolo[2,3-b]pyridin-3-yl)thiazol-2-amine Hydrobromide], the IC50 at human recombinant GSK-3β worked out at 2.45 ± 0.54 µM. Moreover, the “Fyn % Inhibition @ 50 μM” value on FYNα (setting [5]) is on record as “n.i”. Besides, the “Neuroprotection on CGNs (cell viability after serum/potassium deprivation)” value in data set [4] is “almost equipotent to inactive compounds”.
For `Br.c1ccc(CNc2nc(-c3c[nH]c4ccccc34)cs2)cc1` [Compound 34], on human recombinant GSK-3β, the “GSK-3β % Inhibition @ 50 μM” value is given as “n.i”. Besides, on FYNα (setting [5]), the “Fyn % Inhibition @ 50 μM” value was “n.i”.
Take `Br.Cn1cc(-c2csc(NCc3ccccc3)n2)c2cccnc21` [Compound 35]: at human recombinant GSK-3β, the inhibition at 50 µM was 9.8%. Also, the “Fyn % Inhibition @ 50 μM” value at FYNα (setting [5]) is “n.i”.
Turning to `Br.C=CCn1cc(-c2csc(NCc3ccccc3)n2)c2cccnc21` [Compound 36], the inhibition at 50 µM on human recombinant GSK-3β was 4%. Moreover, the “Fyn % Inhibition @ 50 μM” value at FYNα (setting [5]) was “n.i”.
As for `Br.Cc1sc(NCc2ccncc2)nc1-c1c[nH]c2ncccc12` [Compound 42, 5-Methyl-N-(pyridin-4-ylmethyl)-4-(1H-pyrrolo[2,3-b]pyridin-3-yl)thiazol-2-amine Hydrobromide], the IC50 on FYNα came to 0.2 ± 0.02 µM. In addition, the “Neurosphere dimension (brightfield object total area), maturation” value in data set [3] is “premature increase in dimension”.
As for `Nc1nc(-c2c[nH]c3ncccc23)cs1` [Compound I], the IC50 on human recombinant GSK-3β is 6.84 ± 0.17 µM. Moreover, the inhibition at 50 µM at FYNα (50 μM, mean ± SD, n.i. = no inhibition, read-out: Fyn % Inhibition @ 50 μM) came out at 47.2%.

For the origin of these results see paper PMC12406253, “Exploration of the Neuromodulatory Properties of Fyn and GSK-3β Kinases Exploiting 7‑Azaindole-Based Inhibitors” (Journal of Medicinal Chemistry, 2025).
